Legend:
[1] = test system: rat kidneys; assay: MitoSOX Red mitochondrial superoxide generation, cold storage ex vivo model
Description: All animals were treated according to the National Institutes of Health Guide for the Care and Use of Laboratory Animals and the University of Arkansas for Medical Sciences Institutional Animal Care and Use Committee guidelines. Male Fischer 344 inbred rats (Charles Rivers Laboratories, Inc., Wilmington, Mass.) weighing between 250 and 300 g were anesthetized with ethrane, followed by shaving and prepping with betadine. […] Bulldog clamps were placed on the aorta and vena cava (proximal and distal to the renal vessels) to prevent blood flow to the kidneys. A 22-gauge surgical needle was used to puncture the rat's aorta to flush the renal grafts with saline (10 ml per kidney) using a small catheter. Once the kidneys started to turn light brown (perfusion), another vent was formed in the vena cava to allow blood flow from the kidneys. Once both kidneys were completely flushed, the right kidney was recovered and served as a control (group 1), and the left kidney was exposed to CS alone for 4 h at 4° C. (group 2). In additional experiments, kidneys were flushed with saline through the aorta using a small catheter followed by flushing the right kidney with saline containing MitoQ (100 μM) and the left kidney with saline containing DecylTPP (100 μM) (10 ml per kidney). Tissues were recovered and stored in CS+MitoQ (100 μM; right kidney) or CS+DecylTPP (100 μM; left kidney) for 4 h at 4° C. (groups 3 and 4, respectively). […]
(§1) MitoSOX Red (Invitrogen) was used to measure mitochondrial superoxide generation during CS. […] Fluorescence was visualized using an Eclipse E800 microscope (Nikon, Melville, N.Y.) with a rhodamine filter using a water immersion objective (60×). Fluorescent images of NRK cells were captured with equal exposure times and quantified by averaging the mean intensity fluorescence of five random cells in three different fields using Nikon N is Elements software. In separate experiments, cells were grown on coverslips, preloaded with MitoSOX Red before treatment (groups 1-4), and evaluated for mitochondrial superoxide generation using a Hitachi F-2500 spectrofluorometer (Hitachi, Tokyo, Japan) equipped with a coverslip holder using two different excitation wavelengths: 396 and 510 nm with the emission measured at 580 nm as previously described. In addition, rat kidneys were monitored for mitochondrial superoxide generation by flushing kidneys with saline through the aorta using a small catheter as described under Cold Storage Ex Vivo Model, followed by saline containing MitoSOX Red (5 μM; 10 ml/kidney) before treatment (groups 1-4). Paraffin sections were analyzed using the rhodamine filter on the Nikon Eclipse 800 microscope (20×).

[2] = test system: NRK cells; assay: LDH cytotoxicity assay, CS and CS plus rewarming; format: cell-based; conditions: 1 μM
Description: Normal rat kidney proximal tubular cells (NRK-52E; American Type Culture Collection, Manassas, Va.) were maintained in six-well 100 or 150-mm, or 150-mm plates in a humidified incubator gassed with 5% CO2 and 95% air at 37° C. in DMEM (Invitrogen, Carlsbad, Calif.) containing 5% fetal calf serum (FCS). Cells were grown to 60% confluence and divided into four treatment groups: 1) untreated (Untx), 2) CS, 3) CS+MitoQ, and 4) CS+DecylTPP. Untreated cells remained at 37° C. in DMEM containing 5% FCS (group 1). CS was initiated by washing cells with cold PBS (Invitrogen) twice and storing them in UW/Viaspan solution alone (4 h at 4° C.) (group 2), CS+MitoQ (1 μM) (group 3), or CS+DecylTPP (1 μM) (group 4). In separate experiments, cells were exposed to CS plus RW by replacing UW solution alone or UW solution containing MitoQ or DecylTPP with DMEM containing 5% FCS overnight (18 h at 37° C.).
Cell cytotoxicity was determined using the LDH-Cytotoxicity Assay Kit II (Biovision Research Products, Mountain View, Calif.) according to the manufacturer's instructions. Absorbance was measured at 450 nm using a SpectraMax 190 microplate reader and SpectraMax software (Molecular Devices, Sunnyvale, Calif.). Renal cell death was determined using TUNEL staining. Kidney sections were deparaffinized, rehydrated, and exposed to antigen retrieval (20-min incubation at 95° C. with 10 mM sodium citrate buffer, pH 6.0) followed by washing with distilled water and quenching of endogenous peroxidase. Sections were immersed in TdT labeling buffer and then incubated in a humidified chamber with the labeling reaction mix from the TAGS 2 TdT-DAB In Situ Apoptosis Detection kit (Trevigen, Inc., Gaithersburg, Md.) for 1 h at room temperature. The reaction was stopped with TdT stop buffer, and slides were subsequently washed with PBS. Sections were incubated for 10 min with streptavidin-HRP followed by development with diaminobenzidine solution, counterstaining with Mayer's hematoxylin, dehydration, and mounting with Cytoseal-60. The amount of cell death was calculated by averaging the number of cells positive for TUNEL (brown staining) in 10 different fields (cortex and medulla) (20×). All images were taken at equal exposure times (40×oil).

[3] = test system: porcine renal mitochondrial respiratory complex I; assay: Mitochondrial respiratory complex activity, porcine ex vivo renal model
Description: (§2) FIG. 15 depicts graphs showing activities or (A) porcine renal mitochondrial respiratory complex I, (B) activities or porcine renal mitochondrial respiratory complex II/III, and (C) activities or porcine renal mitochondrial respiratory complex IV, after MitoQ treatment. MitoQ ([…]) protected porcine complex II/III following 24 hr cold preservation. Values are expressed as mean SEM (n=4).
(§3) Mitochondrial respiratory complex activity was also evaluated in the porcine ex vivo renal model at 24-h and 48-h CS. […] Protection of Complex II/III by MitoQ (100 μM) was significant following 24-h cold preservation.

[4] = test system: porcine renal mitochondrial respiratory complex IV; assay: as above
Description: as §2, §3

[5] = test system: rat kidneys; assay: TUNEL staining of renal cell death during CS; conditions: 4 h CS, 100 μM
Description: All animals were treated according to the National Institutes of Health Guide for the Care and Use of Laboratory Animals and the University of Arkansas for Medical Sciences Institutional Animal Care and Use Committee guidelines. Male Fischer 344 inbred rats (Charles Rivers Laboratories, Inc., Wilmington, Mass.) weighing between 250 and 300 g were anesthetized with ethrane, followed by shaving and prepping with betadine. […] Bulldog clamps were placed on the aorta and vena cava (proximal and distal to the renal vessels) to prevent blood flow to the kidneys. A 22-gauge surgical needle was used to puncture the rat's aorta to flush the renal grafts with saline (10 ml per kidney) using a small catheter. Once the kidneys started to turn light brown (perfusion), another vent was formed in the vena cava to allow blood flow from the kidneys. […]
Cell cytotoxicity was determined using the LDH-Cytotoxicity Assay Kit II (Biovision Research Products, Mountain View, Calif.) according to the manufacturer's instructions. Absorbance was measured at 450 nm using a SpectraMax 190 microplate reader and SpectraMax software (Molecular Devices, Sunnyvale, Calif.). Renal cell death was determined using TUNEL staining. […] The amount of cell death was calculated by averaging the number of cells positive for TUNEL (brown staining) in 10 different fields (cortex and medulla) (20×). […]

[6] = test system: rat kidneys; assay: Rodent model of warm ischemia/reperfusion (I/R); format: in vivo; conditions: rat kidneys following warm I/R; MitoQ 48 hr oral; 100 μM
Description: (§4) Rodent models of warm ischemia/reperfusion (I/R) (FIGS. 6-7) and cold renal preservation, as well as renal cell models of cold storage (FIG. 3-5) were used to evaluate the effectiveness of MitoQ in preventing renal damage during ischemia. […] In addition, Mito Q blunted mitochondrial superoxide production (Mitosox Red staining) and respiratory complex dysfunction following cold preservation (FIGS. 4-5).

[7] = test system: mitochondrial respiratory complex; assay: Mitochondrial respiratory complex activity in kidneys following cold storage (Example 1); parameters: species or system rat; conditions: following cold preservation (Example 1); MitoQ 100 μM
Description: FIG. 4 depicts a graph showing the effect of MitoQ treatment (100 μM) on mitochondrial respiratory complex activity in kidneys following cold storage *P<0.05 compared with control.
as §4

[8] = test system: NRK cells; assay: MitoSOX Red mitochondrial superoxide generation, cold storage in vitro model; format: cell-based, rat; conditions: 4 h CS at 4° C. in UW, 1 μM
Description: Normal rat kidney proximal tubular cells (NRK-52E; American Type Culture Collection, Manassas, Va.) were maintained in six-well 100 or 150-mm, or 150-mm plates in a humidified incubator gassed with 5% CO2 and 95% air at 37° C. in DMEM (Invitrogen, Carlsbad, Calif.) containing 5% fetal calf serum (FCS). Cells were grown to 60% confluence and divided into four treatment groups: 1) untreated (Untx), 2) CS, 3) CS+MitoQ, and 4) CS+DecylTPP. Untreated cells remained at 37° C. in DMEM containing 5% FCS (group 1). […]
as §1, with “In addition, rat kidneys were monitored for mitochondrial superoxide generation by flushing kidneys with saline through the aorta using a small catheter as described under Cold Storage Ex Vivo Model, followed by saline containing MitoSOX Red (5 μM; 10 ml/kidney) before treatment (groups 1-4). Paraffin sections were analyzed using the rhodamine filter on the Nikon Eclipse 800 microscope (20×).” left out

COC1=C(OC)C(=O)C(CCCCCCCCCC[P+](c2ccccc2)(c2ccccc2)c2ccccc2)=C(C)C1=O [MitoQ, mitoquinone]
mitochondrial superoxide production (Mitosox Red staining) ([1]; following cold preservation (Example 1)): blunted | mitochondrial superoxide generation (MitoSOX Red) ([1]; rat kidneys, 4 h CS at 4° C., 100 μM): markedly decreased | MitoSox Red staining (superoxide) ([1]; rat kidneys, cold storage 4 hr UW, 4° C., UW+MitoQ (100 µM), n=3): decreases | decrease of cell death (LDH cytotoxicity) ([2]; CS alone): approximately 2 fold | decrease of cell death (LDH cytotoxicity) ([2]; CS.RW): approximately 2 fold | protection of Complex I activity, 24-h versus 48-h CS [3]: at 24-h better than at 48-h | protection of Complex IV activity, 24-h versus 48-h CS [4]: at 24-h better than at 48-h | decrease of cell death (TUNEL) compared with CS kidneys [5]: ~2 fold | MnSOD activity [6]: improved | respiratory complex dysfunction [7]: blunted | CS-induced mitochondrial superoxide generation (MitoSOX Red) [8]: significant protection
